“Also recorded” adds a separate entry of the source.

The results in this text go back to patent US9283236B2 (HUMAN MATRIX SCIENCES, LLC, priority 2008, dated 2016).

Data set [1] relates to human fetal cardiac fibroblasts. In words: Quantitative assay of [3H]valine-labeled insoluble elastin. The data set is classed as cell-based. The following applies: 72 hours.
Data set [2] shares this test system. In words: One-step RT-PCR of collagen type I mRNA in cardiac fibroblast cultures. The format is cell-based. The following applies: 1 to 50 nmol/L, 24 hours, normalized to GAPDH mRNA, vs untreated control.
For the next data set, the system named is Akt. Nature of the data set: Western blot of phospho-Akt (Ser473). The data set is classed as cell-based, human. The method, then:
(§1) Western blotting—Confluent fetal human cardiac fibroblast cultures were exposed with or without the treatment specified for the indicated time points. At the end of each experiment cells were lysed using an RIPA buffer (50 mM Tris.HCl, pH 7.4; 150 mM NaCl; 1 mM EDTA; 10 mM NaF; 1% Triton X-100; 0.1% SDS; 1% Na deoxycholate) containing a cocktail of antiproteases (20 μg/ml leupeptin, 10 μg/ml aprotinin, 0.1 mM PMSF, 1 mM DTT) and antiphosphates ([…] orthovanadate, 2 μg/ml pepstatin). Then 40-60 μg of protein extract was resuspended in sample buffer (0.5 M Tris.HCl, pH 6.8; 10% SDS; 10% glycerol; 4% 2-β-mercaptoethanol; and 0.05% bromophenol blue), and the mixture was boiled for 5 minutes. Protein lysates were resolved by precast SDS-PAGE gel (4-12% gradient), transferred to nitrocellulose membranes, blocked for an hour, and then immunoblotted with polyclonal anti-MR antibody, anti-phospho-c-Src (Tyr416) antibody, anti-phospho-Akt (Ser473) antibody, anti-Gα13 (goat) antibody, anti-SCAP2 antibody, or with buffer (TBS-T) at 4° C. overnight. All blots were then incubated with the appropriate HRP-conjugated secondary antibodies for an hour and examined using the enhanced chemiluminescence detection system. Blots were stripped and reprobed using specified antibodies. […] The degree of expression or phosphorylation of immunodetected signaling molecules was measured by densitometry.

Data set [3] deals with human fetal cardiac fibroblasts. In words: Immunostaining of collagen type I fibers in confluent cultures. The format is cell-based. Particulars: 1 to 50 nmol/L, 72 hours.
Data set [4] shares this test system. Nature of the data set: Quantitative assay of [3H]valine-labeled immunoprecipitable tropoelastin. The format is cell-based. Particulars: 1 to 50 nmol/L, 72 hours, vs untreated. The method, then:
Fetal human cardiac fibroblasts were grown to confluence in 35-mm culture dishes (100,000 cells/dish) in quadruplicate. […] Cultures were incubated for 72 hours, and the soluble and insoluble elastin were assessed separately in each dish. The cells were extensively washed with phosphate-buffered saline, and the soluble proteins present in the intracellular compartments were extracted overnight at 4° C. with 0.1 mol/L acetic acid in the presence of proteinase inhibitors. After centrifugation, the supernatants were precleaned by 30-minute incubation with 50 μl of 4% protein A-beaded agarose, and then 500 μl of the supernatant was incubated with 5 μg of polyclonal antibody to tropoelastin for 2 hours and subsequently with 50 μl of 4% protein A-beaded agarose for 3 hours at 4° C. The protein A-containing beads were sedimented by centrifugation, washed with immunoprecipitation buffer, mixed with scintillation fluid, and counted. […] The resulting pellets containing the insoluble elastin were then solubilized by boiling in 200 μl of 5.7 N HCl for 1 hour, and the aliquots were mixed in scintillation fluid and counted. […] Final results reflecting amounts of metabolically labeled insoluble elastin in individual cultures were normalized per their DNA content and expressed as counts per minute per 1 μg of DNA.

A further data set relates to Gα13 and c-Src. In words: Co-immunoprecipitation of Gα13 and c-Src. The data set is classed as cell-based, human.
Data set [5] relates to human fetal cardiac fibroblasts. In words: One-step RT-PCR of elastin mRNA in cardiac fibroblast cultures. The format is cell-based.
Data set [6] has the same test system. In words: Cytotoxic effects of supraphysiological aldosterone in cardiac fibroblast cultures. The following applies: aldosterone 100 nmol/L and 1 μmol/L. The format is cell-based.
Another data set relates to IGF-IR. Nature of the data set: IGF-IR immunoprecipitation and anti-phosphotyrosine blot. The data set is classed as cell-based, human. The method, then: Cells were lysed using an radioimmunoprecipitation assay buffer [50 mmol/L Tris-HCl, pH 7.4, 150 mmol/L NaCl, 1 mmol/L ethylenediamine tetraacetic acid, 10 mmol/L NaF, 1% Triton X-100, 0.1% sodium dodecyl sulfate, 1% sodium deoxycholate containing a cocktail of antiproteases (20 μg/ml leupeptin, 10 μg/ml aprotinin, 0.1 mmol/L phenylmethylsulfonyl fluoride, and 1 mmol/L dithiothreitol) and antiphosphates ([…] orthovanadate and 2 μg/ml pepstatin)], and 300 μg of protein extract was incubated with an antibody against IGF-IRβ for 1 hour at 4° C., followed by the addition of 4% protein A-beaded agarose left overnight, as previously described. The resulting protein-antibody conjugate was centrifuged at 4° C. and washed four times with phosphate-buffered saline. The final pellet was resuspended in sample buffer (0.5 mol/L Tris-HCl, pH 6.8, 10% sodium dodecyl sulfate, 10% glycerol, 4% 2-B-mercaptoethanol, and 0.05% bromphenol blue), and the mixture was boiled for 5 minutes. Proteins were resolved by 12% sodium dodecyl sulfate-polyacrylamide gel electrophoresis, transferred to nitrocellulose membranes, and then immunoblotted with anti-p-Tyr or anti-IGF-IR antibodies. The degree of expression or phosphorylation of immunodetected signaling molecules was measured by densitometry.
At the end of each experiment the cells were lysed as specified above, and 300 μg of protein extract were then precleared for 1 hour with normal rabbit agarose conjugated-IgG at 4° C. and incubated with rabbit polyclonal antibodies against IGF-IR-β, c-Src, or with Gα13 for 1 hour at 4° C., followed by the addition of 4% protein A-beaded agarose and left overnight. The resulting protein-antibody conjugate was centrifuged at 4° C. and washed four times with PBS. The final pellet was resuspended in sample buffer, and the proteins were resolved. Following immunoprecipitation of IGF-IR-β, the membrane was immunoblotted using monoclonal anti-p-Tyr antibody, stripped, and reprobed using anti-IGF-IR-β. Following immunoprecipitation of c-Src, the membranes were immunoblotted using polyclonal goat antibodies against anti-Gα13, while those immunoprecipitated with anti-Gα13 were developed with monoclonal anti-c-Src antibody. Blots were stripped and re-probed for equal loading.
The degree of expression or phosphorylation of immunodetected signaling molecules was measured by densitometry.

Another data set has as its system c-Src. Nature of the data set: Western blot of phospho-c-Src (Tyr416). The format is cell-based, human. On the procedure:
as §1
In general terms: In western blotting, separated proteins are transferred to a membrane and probed.

Data set [7] concerns adult human cardiac fibroblasts. In words: One-step RT-PCR of elastin mRNA in adult cardiac fibroblasts. The data set is classed as cell-based. The following applies: 1 to 50 nmol/L, 24 hours, normalized to GAPDH mRNA.
For data set [8] the test system is unchanged. Nature of the data set: Anti-elastin immunostaining in adult cardiac fibroblasts. Particulars: 1 to 50 nmol/L, 72 hours. The data set is classed as cell-based. On the procedure:
Control cell cultures received an equal amount of the solvent vehicle. […] ScienCell (San Diego, Calif.). At the end of the 72-hour incubation period with the indicated treatment, confluent cultures were either fixed in ice-cold 100% methanol at -20° C. […] The cultures were then incubated for 1 hour with 10 μg/ml polyclonal antibody to tropoelastin or with 10 μg/ml polyclonal antibody to collagen type I. All cultures were then incubated for an additional hour with fluorescein-conjugated goat anti-rabbit or with fluorescein-conjugated rabbit anti-goat secondary antibodies to detect elastin and collagen type I staining, respectively. Nuclei were counterstained with propidium iodide. Secondary antibody alone was used as a control. All of the cultures were then mounted in Elvanol and examined with a Nikon Eclipse […] microscope attached to a cooled charge-coupled device camera (Retiga EX; QImaging, Surrey, BC, Canada) and a computer-generated video analysis system (Image-Pro Plus software; Media Cybernetics, Silver Spring, Md.).

For data set [9], the system named is human fetal cardiac fibroblasts. Nature of the data set: Immunostaining of elastic fibers with anti-elastin antibody. The format is cell-based. The following applies: 10 μM PP2, 1 hour pretreatment, 50 nM aldosterone. On the procedure:
At the end of the 72-hour incubation period with the indicated treatment, confluent cultures were either fixed in ice-cold 100% methanol at −20° C. (for elastin staining) or in 4% paraformaldehyde at room temperature (for collagen staining) for 30 minutes and blocked with 1% normal goat serum for 1 hour at room temperature. The cultures were then incubated for 1 hour with 10 μg/ml polyclonal antibody to tropoelastin or with 10 μg/ml polyclonal antibody to collagen type I. All cultures were then incubated for an additional hour with fluorescein-conjugated goat anti-rabbit or with fluorescein-conjugated rabbit anti-goat secondary antibodies to detect elastin and collagen type I staining, respectively. Nuclei were counterstained with propidium iodide. Secondary antibody alone was used as a control. All of the cultures were then mounted in Elvanol and examined with a Nikon Eclipse E1000 microscope attached to a cooled charge-coupled device camera (Retiga EX; QImaging, Surrey, BC, Canada) and a computer-generated video analysis system (Image-Pro Plus software; Media Cybernetics, Silver Spring, Md.).
Immunostaining—At the end of the 72-hour incubation period with the indicated treatment, confluent cultures were fixed in cold 100% methanol at −20° C. […]

The test system of data set [10] is rat myocardial infarction model. In words: Rat myocardial infarction model, postinfarction scar. The data set is classed as in vivo. Particulars: treated during the postinfarction period, vs vehicle-treated animals.
Where [11] appears, read: 50 nM aldosterone, 30 minutes to 16 hours.
Where [12] appears, read: 10 μM PP2 1 hour preincubation or 72 hour Gα13 siRNA transfection.

`C[C@]12CCC(=O)C=C1CC[C@@H]1[C@@H]2[C@@H](O)C[C@]2(C=O)[C@@H](C(=O)CO)CC[C@@H]12` [aldosterone]: the “[3H]valine incorporation into insoluble elastin” value in data set [1] (1 to 50 nmol/L, vs untreated) is “proportional increase; also recorded: incorporate significantly more [^3H]valine into extracellular insoluble elastin”. Also, the “collagen type I mRNA transcript levels” value in data set [2] was “significant increase in the steady-state level of collagen type I mRNA; also recorded: significantly increased collagen type I mRNA transcript levels”. The “basal phosphorylation of Akt” value in the data set with Akt (50 nM aldosterone, 10 minutes) is given as “significant increase in the basal phosphorylation of Akt”. For the same compound, the “deposition of collagen fibers” value in data set [3] is “subsequent deposition of collagen fibers”. For the same compound, in data set [4], the “[3H]valine-labeled tropoelastin” value is “proportional increase; also recorded: up to approximately three times more”. For the same compound, the “time at which the Gα13/c-Src interaction was most evident” value with Gα13 and c-Src (50 nM aldosterone for 1, 5 or 10 minutes) worked out at 5 min. The “interaction between c-Src and Gα13” value in the data set with Gα13 and c-Src (vs untreated controls) is “increases the interaction between Gα13 and c-Src”. Besides, in data set [5] (setting [11]), the “time at which tropoelastin mRNA begins to significantly increase” value amounted to 1 h and the “time of maximum tropoelastin mRNA level” value lay within 3 to 6 h. In addition, in data set [5] (1 to 50 nmol/L, 24 hours, normalized to GAPDH mRNA, vs untreated control), the “elastin mRNA transcript levels” value was “heightened elastin mRNA levels, in a dose-dependent manner; also recorded: dose-dependently increased elastin mRNA transcript levels”. The cytotoxic effects result in data set [6] is given as “did not produce any cytotoxic effects”. Moreover, the “IGF-IR tyrosine phosphorylation, aldosterone together with IGF-I vs IGF-I alone” value with IGF-IR (50 nmol/L aldosterone with 10, 25 or 50 ng/ml IGF-I, serum-free, 10 minutes) was “exhibit higher levels of IGF-IR tyrosine phosphorylation than their respective counterparts treated with the same doses of IGF-I alone”. The “tyrosine phosphorylation of the IGF-IR” value in the data set on IGF-IR (10-minute exposure, 10% fetal bovine serum, aldosterone or BSA-conjugate 50 nM, IGF-I 100 ng/ml) was “transient increase in tyrosine phosphorylation of the IGF-IR above basal level; also recorded: produced a transient increase in tyrosine phosphorylation of the IGF-IR in control cultures; also recorded: significant increase in tyrosine phosphorylation of IGF-IR over basal levels”. The “tyrosine phosphorylation of the IGF-IR, dependence on serum” value in the data set with IGF-IR (presence vs absence of fetal bovine serum) was “induced a similar effect only in the presence of serum”. Also, the “phosphorylation of c-Src on Tyr416” value in the data set with c-Src (50 nM aldosterone, 10 minutes) was “increased phosphorylation of c-Src on Tyr416; also recorded: leading to activation of c-Src”. Further, in [7], the “elastin mRNA transcript levels, adult cardiac fibroblasts” value is recorded as “dose-dependently increased elastin mRNA transcript levels”. In addition, the “number of immunodetectable elastic fibers, adult cardiac fibroblasts” value in [8] was “significantly increased the number of immunodetectable elastic fibers”.
`CC(C)(C)n1nc(-c2ccc(Cl)cc2)c2c(N)ncnc21` [PP2]: the “effect on aldosterone-induced increase in insoluble elastin production” value in data set [1] (agent added 1 hour before aldosterone (50 nM or 1 to 50 nmol/L)) is on record as “eliminated the aldosterone-induced increase in the net deposition of insoluble elastin”. In addition, the “effect on aldosterone-induced increase in phosphorylation of Akt” value in the data set on Akt (setting [12]) was “is indeed eliminated; also recorded: eliminates this effect”. In addition, the “effect on aldosterone-induced increase in elastin mRNA levels” value in data set [5] (agent added 1 hour (CT04 2 hours) before aldosterone, 24 hours) is listed as “abolished an increase in elastin mRNA levels”. For the same compound, the “effect on aldosterone-induced c-Src phosphorylation” value in the data set with c-Src (setting [12]) is reported as “abolished this effect”. Besides, the “effect on aldosterone-induced upregulation in elastic fiber production” value in data set [9] is “abolished an increase in elastin mRNA levels and the consequent upregulation in elastic fiber production”.
`COC(=O)[C@@H]1CC2=CC(=O)CC[C@]2(C)[C@@]23O[C@@H]2C[C@@]2(C)[C@@H](CC[C@@]24CCC(=O)O4)[C@H]13` [eplerenone]: the postinfarction scar composition entry in data set [10] is on record as “produced scars with abundant elastic fibers”.
